Tested on: recovered yeast (slurry yeast recovered from the beer fermentation step)
Assay: Methylene Blue staining ratio (mortality) of yeast before drying or after drying and reconstitution with water
Format: cell-based
Settings: for Elevating the survival ratio of the yeast after reconstitution with water, similar to glycerol: as substitute for glycerol; for Elevating the survival ratio of the dry yeast after reconstitution with water, similar to trehalose: as substitute for trehalose; for Ratio of the dead cells after drying and reconstitution with water: 5% of trehalose
Experimental: 50 g of a 20% aqueous solution of trehalose was added to 50 g of the recovered yeast and the resultant mixture was stirred at 20° C. for 3 hours to thereby incorporate the trehalose into the yeast cells. Then the yeast having trehalose thus incorporated was filtered under suction on a filter paper No.2 with the use of a Nutsche filter. The obtained yeast was then passed through a 14-mesh sieve and dried in a thermostat at 30° C. for about 20 hours to give a dry yeast. 0.1 g of this dry yeast was suspended and reconstituted in 1 ml of distilled water at room temperature. Then the mortality of the yeast was measured by the Methylene Blue staining method. Since dead cells could not reduce Methylene Blue, the cells stained with Methylene Blue were regarded as dead cells. Thus, the Methylene Blue staining ratio could be referred to as the mortality. […] Thus, trehalose was incorporated as in Example 1 and then the yeast was dried. […]
To 50 g of the slurry yeast recovered from the beer fermentation step, 50 g of an aqueous trehalose solution (concentration: about 20%) was added. After stirring at 20° C. for 3 hours, the yeast was centrifuged, suspended in 50 g portions of 300 g/L aqueous solutions of various sugar alcohols and maintained at room temperature for 15 minutes. Subsequently, the yeast was filtered under suction on a filter paper No.2 as in Example 2. The obtained yeast was passed through a 14-mesh sieve and dried in a thermostat at 5° C. for about 20 hours. The dry yeast thus obtained was reconstituted with water as in Example 2 and stained with Methylene Blue to measure the mortality of the yeast.
To 50 g of the slurry yeast recovered from the beer fermentation step, 50 g of an aqueous trehalose solution (concentration: about 20%) was added. After stirring at 20° C. for 3 hours, the yeast was centrifuged, suspended in 50 g of an about 300 g/L aqueous glycerol solution and maintained at room temperature for 15 minutes. Subsequently, the yeast was filtered under suction on a filter paper No.2 as in Example 2. The obtained yeast was passed through a 14-mesh sieve and dried in a thermostat at 5° C. to 30° C. for about 20 hours. Alternatively, the yeast was dried by using a fluidized bed dryer at 30° C. for 1 hour. Each of the dry yeast thus obtained was rehydrated with water as in Example 2 and stained with Methylene Blue to measure the mortality of the yeast.

[1] = sugar/sugar alcohol (about 20% solution, 20° C., 3 hours) as substitute for trehalose, then 300 g/L glycerol, dried at 5° C.
[2] = trehalose-treatment, then 300 g/L sugar alcohol as substitute for glycerol, 15 minutes, dried at 5° C.
[3] = trehalose-treatment as in Example 2, after rehydration with water
[4] = glycerol 100 g/L after trehalose-treatment
[5] = glycerol 150 g/L after trehalose-treatment
[6] = glycerol 200 g/L after trehalose-treatment
[7] = glycerol 300 g/L after trehalose-treatment

O=C[C@H](O)[C@@H](O)[C@H](O[C@@H]1O[C@H](CO)[C@@H](O)[C@H](O)[C@H]1O)[C@H](O)CO [Cellobiose]
Methylene Blue-staining ratio (%) after reconstitution with water [1]: 54.8%

OC[C@H]1O[C@H](O[C@H]2[C@H](O)[C@@H](O)[C@H](O)O[C@@H]2CO)[C@H](O)[C@@H](O)[C@@H]1O [Maltose]
Methylene Blue-staining ratio (%) after reconstitution with water [1]: 56.4%

OC[C@@H](O)[C@H](O)[C@@H](O)CO [Xylitol]
Elevating the survival ratio of the yeast after reconstitution with water, similar to glycerol: effective | Methylene Blue-staining ratio (%) after reconstitution with water [1]: 41.6% | Methylene Blue-staining ratio (%) after reconstitution with water [2]: 30.4%

OC[C@H]1O[C@@](CO)(O[C@H]2O[C@H](CO)[C@@H](O)[C@H](O)[C@H]2O)[C@@H](O)[C@@H]1O [Sucrose]
Methylene Blue-staining ratio (%) after reconstitution with water [1]: 51.9%

O=C(CO)[C@@H](O)[C@H](O)[C@H](O)CO [Fructose]
Methylene Blue-staining ratio (%) after reconstitution with water [1]: 51.1%

OC[C@@H](O)[C@@H](O)[C@H](O)[C@H](O)CO [Mannitol]
Elevating the survival ratio of the dry yeast after reconstitution with water, similar to trehalose: effective | Methylene Blue-staining ratio (%) after reconstitution with water [1]: 37.1% | Methylene Blue-staining ratio (%) after reconstitution with water [2]: 47.5%

OC[C@H]1O[C@H](O[C@H]2O[C@H](CO)[C@@H](O)[C@H](O)[C@H]2O)[C@H](O)[C@@H](O)[C@@H]1O [Trehalose, trehalose]
Ratio of the dead cells after drying and reconstitution with water (10° C., 1 or 3 hours): about 60% | Ratio of the dead cells after drying and reconstitution with water (10° C., 21 hours): about 90% | Methylene Blue-staining ratio (before drying, treated with 5% trehalose, 10° C., 1 Hrs): 8.97 | Methylene Blue-staining ratio (before drying, treated with 5% trehalose, 10° C., 3 Hrs): 8.45 | Methylene Blue-staining ratio (before drying, treated with 5% trehalose, 10° C., 21 Hrs): 11.88 | Methylene Blue-staining ratio (before drying, treated with 5% trehalose, 20° C., 1 Hrs): 6.58 | Methylene Blue-staining ratio (before drying, treated with 5% trehalose, 20° C., 3 Hrs): 7.51 | Methylene Blue-staining ratio (before drying, treated with 5% trehalose, 20° C., 21 Hrs): 16.44 | Methylene Blue-staining ratio (before drying, treated with 10% trehalose, 10° C., 1 Hrs): 6.36 | Methylene Blue-staining ratio (before drying, treated with 10% trehalose, 10° C., 3 Hrs): 8.67 | Methylene Blue-staining ratio (before drying, treated with 10% trehalose, 10° C., 21 Hrs): 17.68 | Methylene Blue-staining ratio (before drying, treated with 10% trehalose, 20° C., 1 Hrs): 8.26 | Methylene Blue-staining ratio (before drying, treated with 10% trehalose, 20° C., 3 Hrs): 9.24 | Methylene Blue-staining ratio (before drying, treated with 10% trehalose, 20° C., 21 Hrs): 8.90 | Methylene Blue-staining ratio (immediately after reconstitution with water (dried at 30° C.), 5% trehalose, 10° C., 1 Hrs): 63.72 | Methylene Blue-staining ratio (immediately after reconstitution with water (dried at 30° C.), 5% trehalose, 10° C., 3 Hrs): 63.40 | Methylene Blue-staining ratio (immediately after reconstitution with water (dried at 30° C.), 5% trehalose, 10° C., 21 Hrs): 90.11 | Methylene Blue-staining ratio (immediately after reconstitution with water (dried at 30° C.), 5% trehalose, 20° C., 1 Hrs): 64.95 | Methylene Blue-staining ratio (immediately after reconstitution with water (dried at 30° C.), 5% trehalose, 20° C., 3 Hrs): 84.17 | Methylene Blue-staining ratio (immediately after reconstitution with water (dried at 30° C.), 5% trehalose, 20° C., 21 Hrs): 92.47 | Methylene Blue-staining ratio (immediately after reconstitution with water (dried at 30° C.), 10% trehalose, 10° C., 1 Hrs): 69.51 | Methylene Blue-staining ratio (immediately after reconstitution with water (dried at 30° C.), 10% trehalose, 10° C., 3 Hrs): 64.95 | Methylene Blue-staining ratio (immediately after reconstitution with water (dried at 30° C.), 10% trehalose, 10° C., 21 Hrs): 79.33 | Methylene Blue-staining ratio (immediately after reconstitution with water (dried at 30° C.), 10% trehalose, 20° C., 1 Hrs): 62.15 | Methylene Blue-staining ratio (immediately after reconstitution with water (dried at 30° C.), 10% trehalose, 20° C., 3 Hrs): 62.04 | Methylene Blue-staining ratio (immediately after reconstitution with water (dried at 30° C.), 10% trehalose, 20° C., 21 Hrs): 87.43 | Methylene Blue-staining ratio (%) after reconstitution with water [1]: 32.2% | Mortality (%) after drying at 30° C. [3]: 73.4% | Mortality (%) after drying at 50° C. [3]: 58.0%

OC[C@@H](O)[C@@H](O[C@H]1O[C@H](CO)[C@@H](O)[C@H](O)[C@H]1O)[C@H](O)[C@@H](O)CO [Maltitol]
Elevating the survival ratio of the yeast after reconstitution with water, similar to glycerol: effective | Elevating the survival ratio of the dry yeast after reconstitution with water, similar to trehalose: effective | Methylene Blue-staining ratio (%) after reconstitution with water [1]: 29.7% | Methylene Blue-staining ratio (%) after reconstitution with water [2]: 30.1%

O=C[C@H](O)[C@@H](O)[C@H](O)CO [Xylose]
Elevating the survival ratio of the dry yeast after reconstitution with water, similar to trehalose: effective | Methylene Blue-staining ratio (%) after reconstitution with water [1]: 37.7%

OC1OC[C@@H](O[C@@H]2OC[C@@H](O)[C@H](O)[C@H]2O)[C@H](O)[C@H]1O (some centres unmarked) [Xylobiose]
Methylene Blue-staining ratio (%) after reconstitution with water [1]: 46.5%

OCC(O)CO [Glycerol, glycerol]
Methylene Blue-staining ratio, after reconstitution with water after drying and storing at 25° C. for 8 days [4]: 59.8% | Methylene Blue-staining ratio, before drying [4]: 20.8% | Methylene Blue-staining ratio, immediately after drying/reconstitution with water (glycerol 100 g/L after trehalose-treatment, dried at 5° C.): 30.8% | Methylene Blue-staining ratio, after reconstitution with water after drying and storing at 25° C. for 8 days [5]: 62.3% | Methylene Blue-staining ratio, before drying [5]: 66.7% | Methylene Blue-staining ratio, immediately after drying/reconstitution with water (glycerol 150 g/L after trehalose-treatment, dried at 5° C.): 23.7% | Methylene Blue-staining ratio, after reconstitution with water after drying and storing at 25° C. for 8 days [6]: 40.2% | Methylene Blue-staining ratio, before drying [6]: 97.8% | Methylene Blue-staining ratio, immediately after drying/reconstitution with water (glycerol 200 g/L after trehalose-treatment, dried at 5° C.): 26.3% | Methylene Blue-staining ratio, after reconstitution with water after drying and storing at 25° C. for 8 days [7]: 48.5% | Methylene Blue-staining ratio, before drying [7]: 99.6% | Methylene Blue-staining ratio, immediately after drying/reconstitution with water (glycerol 300 g/L after trehalose-treatment, dried at 5° C.): 26.2% | Methylene Blue-staining ratio, before drying (trehalose-treatment then 300 g/L aqueous glycerol, 15 minutes): 95.8% | Methylene Blue-staining ratio, after drying/reconstitution with water (trehalose-treatment then 300 g/L aqueous glycerol, 15 minutes, dried at 5° C.): 18.3% | Methylene Blue-staining ratio (%) after reconstitution with water [2]: 24.4%

OC[C@H]1O[C@@H](O[C@H]2[C@H](O)[C@@H](O)C(O)O[C@@H]2CO)[C@H](O)[C@@H](O)[C@H]1O (some centres unmarked) [Lactose]
Methylene Blue-staining ratio (%) after reconstitution with water [1]: 38.6%

OC[C@@H](O)[C@@H](O)[C@H](O)[C@@H](O)CO [Sorbitol]
Methylene Blue-staining ratio (%) after reconstitution with water [1]: 41.8% | Methylene Blue-staining ratio (%) after reconstitution with water [2]: 41.2%

O=C[C@H](O)[C@@H](O)[C@@H](O)[C@H](O)CO [Galactose]
Methylene Blue-staining ratio (%) after reconstitution with water [1]: 40.6%

From patent US7052724B2, “Method of producing active dry yeast” (Suntory Limited, priority 2001, dated 2006)
